# Where two headings read alike, the source gives them in different places.
# Legend:
# MRSA PK = target: T1, MRSA PK (Staphylococcus aureus, UniProt Q6GG09); assay: MRSA PK activity, continuous LDH-coupled assay; type: biochemical, S. aureus (MRSA strain Sanger 252)
# T1 construct: His tag (pET-28a(+) vector) (N); made in house; host or cells: E. coli BL-21 (DE3)
# In short: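 Purified His-tagged MRSA PK (15 nM, E. coli-expressed) started reactions run up to 5 min at 30 °C. Activity was followed continuously by LDH-coupled NADH oxidation at 340 nm, with DMSO ≤1%. IC50 came from four-parameter variable-slope fits.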
# S. aureus ATCC 29213 = assay: In vitro susceptibility, broth microdilution MIC; type: cell-based, Staphylococcus aureus
# In short: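 The MIC against S. aureus 29213 was determined by CLSI 2-fold serial broth microdilution in Mueller Hinton broth. Plates were incubated for 18–24 h at 37 °C and read at OD600 with background subtracted. The MIC was the lowest concentration giving complete growth inhibition versus compound-free wells.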
# [1] = test system: A. baumannii (ATCC 19606); assay: Broth microdilution MIC; type: cell-based; conditions: Acinetobacter baumannii
# Procedure: (§1) The antimicrobial activities of PK inhibitor candidates were determined using the 96-well microtiter standard 2-fold serial broth microdilution method as described by CLSI (formerly NCCLS) with the various gram-positive and gram-negative bacteria species mentioned above. Bacteria from a single colony were grown, overnight in either BHI Broth (VRE), mueller hinton broth (S. aureus 29213; MRSA USA400) or L-broth (E. coli, P. aeruginosa, S. typhimuriu, K. Pneumonia and A. baumannii). […] Culture plates were incubated for 18-24 h at 37° C., and optical density at 600 nm (OD600) was measured using a Benchmark Plus™ microplate spectrophotometer (Bio-Rad™). The absorbance control values for the series containing CAMHB and inhibitor were subtracted as background from the corresponding infected wells. The MIC was defined as the lowest concentration of test compound leading to complete inhibition of cell growth in relationship to compound-free control wells as determined by optical density. […] All assays were run in triplicate (Tables 1-6) or duplicate. Experiments were replicated at least twice to verify reproducibility using the above conditions.
# (§2) The antimicrobial activity of selected compounds against the gram negative bacteria Klebsiella pneumoniae, Acinetobacter baumannii, E. coli, Pseudomonas aeruginosa and Salmonella typhimurium, as well as additional gram positive bacteria, including drug-resistant strains, was tested according to the procedures provided under “General Methodologies” above.
# K. pneumoniae (C238) = assay: Broth microdilution MIC; type: cell-based; conditions: Klebsiella pneumoniae, read-out: MIC (μg/mL) A
# Procedure: as §1, §2
# P. aeruginosa (PA01) = assay: Broth microdilution MIC; type: cell-based; conditions: Pseudomonas aeruginosa
# Procedure: as §1, §2
# S. pyogenes (ATCC700294) = assay: Broth microdilution MIC; type: cell-based; conditions: Streptococcus pyogenes
# Procedure: as §1, §2
# S. typhimurium (SL 1344) = assay: Broth microdilution MIC; type: cell-based; conditions: Salmonella enterica
# Procedure: as §1, §2
# E. coli (DAS 1-IMP) = assay: microbe, parasite or virus in culture; type: cell-based, Escherichia coli; conditions: for MIC: Escherichia coli, read-out: MIC (μg/mL) C, E. coli (DAS 1-IMP)
# Procedure: as §1, §2
# VRE#2 (2010A) = assay: Broth microdilution MIC; type: cell-based, vancomycin-resistant Enterococcus; conditions: Enterococcus, read-out: MIC (μg/mL) F
# Procedure: as §1, §2
# MRSA MW2 (USA400) = assay: Broth microdilution MIC; type: cell-based; conditions: Staphylococcus aureus, read-out: MIC (μg/mL) G
# Procedure: as §1, §2
# S. aureus ATCC 29123 = assay: Neutropenic mouse Staphylococcus aureus thigh infection model; type: in vivo; conditions: vancomycin control, 10 mg/kg IP at 2 and 8 h, 24 h endpoint
# Procedure: The antimicrobial activity of compound 178 against S. aureus ATCC 29123 was tested in vivo using the neutropenic mouse Staphylococcus aureus thigh infection model. […] Animals were individually monitored for adverse reactions for 30 min post-infection. […] Vancomycin was administered as a solution in PBS. The test compounds were administered as outlined in Table 12 at 2 and 8 hours post-infection and animals were individually monitored for adverse reactions for 30 min after each injection. All animals were then monitored hourly from 20 hours post infection to the endpoint (t=24 hr post infection). At the indicated timepoint, animals were sacrificed and the injected thigh collected. Quantitative enumeration of bacterial load was determined by plating serial dilutions from homogenized thigh muscles. Homogenized muscle was in a total of 2 mL volume, from which a 1 in 10 dilution was prepared (100 μL into 900 μL saline). From this a series of dilutions were prepared and plated on Mueller Hinton agar plates. […] At the end of this time colony counts were determined and the final CFU per mL calculated.
# [2] = Staphylococcus aureus, ATCC29213, S. aureus (ATCC29213), Table 9, read-out: MIC (μg/mL) H
# [3] = Staphylococcus aureus, ATCC29213, Table 8, tested at least in duplicate, differing values all given, read-out: MIC
# [4] = Table 8, tested at least in duplicate, differing values all given
# [5] = ATCC19606, A. baumannii (ATCC 19606), read-out: MIC (μg/mL) B
# [6] = Tables 1-6, 2 mM ADP, 10 mM PEP, 15 nM PK, read-out: IC50
# [7] = Staphylococcus aureus, ATCC29213, Tables 1-6 and text, minimum concentration to give >98% inhibition of growth, read-out: MIC
# T1 sequence (Q6GG09 whole entry): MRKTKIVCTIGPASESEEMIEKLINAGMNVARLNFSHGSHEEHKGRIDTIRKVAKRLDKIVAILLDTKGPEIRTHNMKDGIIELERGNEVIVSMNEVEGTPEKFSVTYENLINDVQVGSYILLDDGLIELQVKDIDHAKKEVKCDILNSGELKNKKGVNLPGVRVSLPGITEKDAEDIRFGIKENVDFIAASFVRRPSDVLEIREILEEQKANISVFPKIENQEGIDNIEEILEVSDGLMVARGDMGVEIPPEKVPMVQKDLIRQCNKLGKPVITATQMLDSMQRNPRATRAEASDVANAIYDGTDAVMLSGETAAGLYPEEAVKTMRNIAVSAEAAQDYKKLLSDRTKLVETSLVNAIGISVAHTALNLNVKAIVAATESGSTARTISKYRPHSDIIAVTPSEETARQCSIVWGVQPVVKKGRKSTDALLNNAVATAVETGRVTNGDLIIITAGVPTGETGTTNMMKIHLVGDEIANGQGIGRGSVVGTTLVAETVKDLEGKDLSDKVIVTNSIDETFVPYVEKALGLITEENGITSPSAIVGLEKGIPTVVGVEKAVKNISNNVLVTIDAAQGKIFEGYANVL
Compound,IC50 (MRSA PK) [µM],MIC (S. aureus ATCC 29213; [2]) [µg/mL],"MIC [1, 5] [µg/mL]",MIC (K. pneumoniae (C238); K. pneumoniae (C238)) [µg/mL],MIC (VRE#2 (2010A); VRE#2 (2010A)) [µg/mL],MIC (MRSA MW2 (USA400); MRSA MW2 (USA400)) [µg/mL],IC50 (MRSA PK; [6]) [µM],MIC (S. aureus ATCC 29213; [7]) [µg/mL],melting point [°C],other results
"O=C(c1c(CCc2ccc(Cl)cc2)[nH]c2cc(Br)ccc12)C(F)(F)F [Compound 167, 1-(6-Bromo-2-(4-chlorophenethyl)-1H-indol-3-yl)-2,2,2-trifluoroethanone]",0.1 to 1,1.5,> 64,1,1,,,,,MIC (S. aureus ATCC 29213; [3]): 2 µg/mL; MIC (S. aureus ATCC 29213; [4]): 1 µg/mL; MIC (P. aeruginosa (PA01)): > 64 µg/mL; MIC (S. pyogenes (ATCC700294)): 2 µg/mL; MIC (S. typhimurium (SL 1344)): > 64 µg/mL; MIC (μg/mL) C (E. coli (DAS 1-IMP); E. coli (DAS 1-IMP)): 8 µg/mL; MIC (E. coli (DAS 1-IMP)): 4 µg/mL
"CN[C@H](CC(C)C)C(=O)N[C@H]1C(=O)N[C@@H](CC(N)=O)C(=O)N[C@H]2C(=O)N[C@H]3C(=O)N[C@H](C(=O)N[C@H](C(=O)O)c4cc(O)cc(O)c4-c4cc3ccc4O)[C@H](O)c3ccc(c(Cl)c3)Oc3cc2cc(c3O[C@@H]2O[C@H](CO)[C@@H](O)[C@H](O)[C@H]2O[C@H]2C[C@](C)(N)[C@H](O)[C@H](C)O2)Oc2ccc(cc2Cl)[C@H]1O [Vancomycin, reference compound]",,,,,,,,,,"MIC (S. aureus ATCC 29213; Staphylococcus aureus, ATCC29213): 1 µg/mL; MIC (S. aureus ATCC 29213; Staphylococcus aureus, ATCC29213, read-out: MIC (μg/mL) H): 1 µg/mL; MIC ([1]; ATCC19606, read-out: MIC (μg/mL) B): 64 µg/mL; MIC (K. pneumoniae (C238)): 4 µg/mL; MIC (MRSA MW2 (USA400)): 1 µg/mL; MIC (VRE#2 (2010A); VRE): 64 µg/mL; median CFU/thigh (S. aureus ATCC 29123): 1.91×10^3 CFU/thigh"
"COC(=O)c1c(/C=C/c2ccc(Cl)cc2)[nH]c2cc(Br)ccc12 [Compound 124, (E)-methyl 6-bromo-2-(4-chlorostyryl)-1H-indole-3-carboxylate]",< 0.05,2,> 64,2,8,2,,,,MIC (S. aureus ATCC 29213; [3]): 4 µg/mL; MIC (S. aureus ATCC 29213; [4]): 2 µg/mL; MIC (P. aeruginosa (PA01)): > 64 µg/mL; MIC (S. typhimurium (SL 1344)): > 64 µg/mL; MIC (E. coli (DAS 1-IMP)): > 64 µg/mL
"O=C(O)c1c(/C=C/c2ccc(Cl)cc2)[nH]c2cc(Br)ccc12 [Compound 123, (E)-6-Bromo-2-(4-chlorostyryl)-1H-indole-3-carboxylic acid]",0.1 to 1,16,64,32,32,32,,,,MIC (P. aeruginosa (PA01)): > 64 µg/mL; MIC (S. typhimurium (SL 1344)): > 64 µg/mL; MIC (E. coli (DAS 1-IMP)): 64 µg/mL
"COc1cccc(OC)c1C(=O)N[C@@H]1C(=O)N2[C@@H]1SC(C)(C)[C@@H]2C(=O)O [Methicillin, methicillin, reference compound]",,2,> 64,4,64,32,,,,MIC (S. pyogenes (ATCC700294)): 1 µg/mL
"O=C(Cn1c(-c2cc3ccc(Br)cc3[nH]2)cc2cc(Br)ccc21)N1CCOCC1 [Compound 15, 2-(5,6′-dibromo-1H,1′H-[2,2′-biindol]-1-yl)-1-morpholinoethanone]",,,,,,,0.006,> 64,320 to 322,
"COc1ccc2[nH]c(-c3cc4ccc(Br)cc4[nH]3)cc2c1 [Compound 10f, 6′-Bromo-5-methoxy-1H,1′H-2,2′-biindole]",,,,,,,0.0025,> 64,240 to 241,
"O=C(O)Cn1c(-c2cc3ccc(Br)cc3[nH]2)cc2cc(Br)ccc21 [Compound 14, 2-(5,6′-Dibromo-1H,1′H-[2,2′-biindol]-1-yl)acetic acid]",,,,,,,0.0111,> 64,321 to 323,
"Clc1ccc2[nH]c(-c3cc4ccc(Br)cc4[nH]3)cc2c1 [Compound 10d, 6′-Bromo-5-chloro-1H,1′H-2,2′-biindole]",,,,,,,0.002,0.3,257 to 259,
"Brc1ccc2cc(-c3cc4ccccc4s3)[nH]c2c1 [Compound 22c, 2-(Benzo[b]thiophen-2-yl)-6-bromo-1H-indole]",,,,,,,0.014,> 64,250 to 252,
"O=C(c1c(/C=C/c2ccc(Cl)cc2)[nH]c2cc(Br)ccc12)C(F)(F)F [Compound 168, (E)-1-(6-Bromo-2-(4-chlorostyryl)-1H-indol-3-yl)-2,2,2-trifluoroethanone]",0.1 to 1,2,,,1,0.5,,,,MIC (S. aureus ATCC 29213; [3]): 1 µg/mL; MIC (S. aureus ATCC 29213; [4]): 2 µg/mL

# — patent US20170216252A1, “ANTI-BACTERIAL PYRUVATE KINASE MODULATOR COMPOUNDS, COMPOSITIONS, USES AND METHODS” (SIMON FRASER UNIVERSITY, priority 2014, published 2017)
